Experimental data: US20250179047A1, “5-[7-(3,4-DIHYDRO-1H-ISOQUINOLINE-2-CARBONYL)-1,2,3,4 TETRAHYDROISOQUINOLIN-6-YL]-1H-PYRROLE-3-CARBOXAMIDE DERIVATIVES, PHARMACEUTICAL COMPOSITIONS CONTAINING THEM AND THEIR USES AS PRO-APOPTOTIC AGENTS” (LES LABORATOIRES SERVIER, priority 2022, published 2025)

Key:
BCL2 WT = BCL2 WT (Homo sapiens (Human), UniProt P10415); test: TR-FRET competitive binding assay, BCL2 WT; conditions: Ki determined from IC50, read-out: TR_FRET EKI_Bcl2 WT
Method in brief: (§1)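 Competitive TR-FRET displacement of fluorescein-PUMA peptide (2 or 20 nM) from 0.5 nM terbium-labelled N-terminal Halo-fusion BCL2 (1-207, wild type or mutant) or BCLXL (2-196), expressed in E. coli. Buffer 50 mM Hepes pH 7.5, 150 mM NaCl, 5% DMSO; 2 h at 23°C. 520/495 nm ratio fitted over 11 points for IC50, converted to Ki.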

BCL2 G101V [1] = molecular target: BCL2 G101V (Homo sapiens, UniProt P10415, G101V); test: TR-FRET competitive binding assay, BCL2 G101V; conditions: BCL2 G101V; Ki determined from IC50; read-out: TR_FRET EKI_Bcl2 G101V
Method in brief: as §1

BCL2 G101V [2] = test: TR-FRET competitive binding assay, BCL2 G101V; parameters: species or system human; conditions: ratio Ki BCL2 G101V / Ki BCL2 WT
Method in brief: as §1

BCL2 D103Y = BCL2 D103Y (Homo sapiens, UniProt P10415, D103Y); test: TR-FRET competitive binding assay, BCL2 D103Y; conditions: Ki determined from IC50, read-out: TR_FRET EKI_Bcl2 D103Y
Method in brief: as §1

BCLXL WT = BCLXL WT (Homo sapiens (Human), UniProt Q07817); test: TR-FRET competitive binding assay, BCLXL WT; conditions: for Ki: BCLXL WT, Ki determined from IC50, read-out: TR_FRET EKI BclxL; for TR_FRET EKI BCLxL/WT selectivty ratio: ratio Ki BCLxL / Ki BCL2 WT
Method in brief: as §1

KMS-12-PE Bcl-2 WT = test: In vitro cytotoxicity CellTiter-Glo 48 h, KMS-12-PE Bcl-2 WT; assay type: cell-based; conditions: Homo sapiens, KMS-12-PE, C50 = concentration needed to reach 50% of the cellular viability
Method in brief: (§2)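 Viability measured by CellTiter-Glo luminescence after 48 h compound exposure (11-point curve, 37 °C, 5% CO2). Cells: KMS-12-PE transduced with wild-type or G101V-mutant Bcl-2, FACS-sorted for TagRFP. Reported C50 = concentration reaching 50% cellular viability.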

KMS-12-PE Bcl-2 G101V = test: In vitro cytotoxicity CellTiter-Glo 48 h, KMS-12-PE Bcl-2 G101V; assay type: cell-based; conditions: for Ratio (G101V/WT): C50 KMS-12-PE Bcl-2 G101V over C50 KMS-12-PE Bcl-2 WT; for IC50: Homo sapiens, KMS-12-PE, 48 h, CellTiter-Glo, C50 = concentration needed to reach 50% of the cellular viability
Method in brief: as §2

Sequence of BCLXL WT (Q07817 other isoform, or with tags, fused parts or gaps): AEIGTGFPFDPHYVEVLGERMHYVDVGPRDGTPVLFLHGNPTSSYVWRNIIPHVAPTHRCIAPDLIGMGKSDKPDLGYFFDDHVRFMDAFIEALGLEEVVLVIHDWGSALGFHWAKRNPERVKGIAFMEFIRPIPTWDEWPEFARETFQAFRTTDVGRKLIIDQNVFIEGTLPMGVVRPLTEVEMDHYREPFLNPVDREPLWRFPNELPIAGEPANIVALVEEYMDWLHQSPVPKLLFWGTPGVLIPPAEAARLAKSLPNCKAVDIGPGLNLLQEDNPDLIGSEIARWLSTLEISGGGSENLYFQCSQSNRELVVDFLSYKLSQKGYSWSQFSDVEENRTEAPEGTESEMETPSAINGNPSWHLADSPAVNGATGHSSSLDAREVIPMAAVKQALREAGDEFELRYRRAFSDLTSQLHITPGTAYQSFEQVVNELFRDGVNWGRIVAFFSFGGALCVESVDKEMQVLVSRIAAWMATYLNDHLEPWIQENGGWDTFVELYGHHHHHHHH

Cc1c(N(C(=O)c2cc(-c3cc4c(cc3C(=O)N3Cc5ccccc5C[C@H]3CN3CCCCC3)CN(C(=O)Cc3ccc(OCCN5CCN(CC(F)F)CC5)cc3)CC4)n(C)c2C)c2ccc(O)cc2)cc(C#N)n1C [Example 112, N-(5-cyano-1,2-dimethylpyrrol-3-yl)-5-{2-[2-(4-{2-[4-(2,2-difluoroethyl)piperazin-1-yl]ethoxy}phenyl)acetyl]-7-{[(3S)-3-(piperidin-1-ylmethyl)-3,4-dihydro-1H-isoquinolin-2-yl]carbonyl}-3,4-dihydro-1H-isoquinolin-6-yl}-N-(4-hydroxyphenyl)-1,2-dimethylpyrrole-3-carboxamide]
Ki (BCL2 WT): 0.05 nM | Ki (BCL2 G101V [1]): 0.3 nM | TR_FRET EKI G101V/WT selectivty ratio (BCL2 G101V [2]): 5.6 | Ki (BCL2 D103Y): 0.1 nM | Ki (BCLXL WT): 7.1 nM | TR_FRET EKI BCLxL/WT selectivty ratio (BCLXL WT): 134.0 | IC50 (KMS-12-PE Bcl-2 WT): 0.0124 µM | Ratio (G101V/WT) (KMS-12-PE Bcl-2 G101V): 5.7 | IC50 (KMS-12-PE Bcl-2 G101V): 0.0707 µM

COc1cc(OCCN2CCOCC2)ccc1CC(=O)N1CCc2cc(-c3cc(C(=O)N(c4ccc(O)cc4)c4cc(C#N)n(C)c4C)c(C)n3C)c(C(=O)N3Cc4ccccc4C[C@H]3CN3CCCCC3)cc2C1 [Example 114, N-(5-cyano-1,2-dimethyl-1H-pyrrol-3-yl)-N-(4-hydroxyphenyl)-5-[2-(2-{2-methoxy-4-[2-(morpholin-4-yl)ethoxy]phenyl}acetyl)-7-[(3S)-3-[(piperidin-1-yl)methyl]-1,2,3,4-tetrahydroisoquinoline-2-carbonyl]-1,2,3,4-tetrahydroisoquinolin-6-yl]-1,2-dimethyl-1H-pyrrole-3-carboxamide]
Ki (BCL2 WT): 0.05 nM | Ki (BCL2 G101V [1]): 0.2 nM | TR_FRET EKI G101V/WT selectivty ratio (BCL2 G101V [2]): 3.9 | Ki (BCL2 D103Y): 0.1 nM | Ki (BCLXL WT): 4.3 nM | TR_FRET EKI BCLxL/WT selectivty ratio (BCLXL WT): 84.3 | IC50 (KMS-12-PE Bcl-2 WT): 0.0099 µM | Ratio (G101V/WT) (KMS-12-PE Bcl-2 G101V): 6.09 | IC50 (KMS-12-PE Bcl-2 G101V): 0.0602 µM

Cc1c(N(C(=O)c2cc(-c3cc4c(cc3C(=O)N3Cc5ccccc5C[C@H]3CN3CCCCC3)CN(C(=O)Cc3ccc(OCCN(C)CCF)cc3)CC4)n(C)c2C)c2ccc(O)cc2)cc(C#N)n1C [Example 116, N-(5-cyano-1,2-dimethyl-1H-pyrrol-3-yl)-5-{2-[2-(4-{2-[(2-fluoroethyl)(methyl)amino]ethoxy}phenyl)acetyl]-7-[(3S)-3-[(piperidin-1-yl)methyl]-1,2,3,4-tetrahydroisoquinoline-2-carbonyl]-1,2,3,4-tetrahydroisoquinolin-6-yl}-N-(4-hydroxyphenyl)-1,2-dimethyl-1H-pyrrole-3-carboxamide]
Ki (BCL2 WT): 0.05 nM | Ki (BCL2 G101V [1]): 0.4 nM | TR_FRET EKI G101V/WT selectivty ratio (BCL2 G101V [2]): 7.0 | Ki (BCL2 D103Y): 0.19 nM | Ki (BCLXL WT): 3.3 nM | TR_FRET EKI BCLxL/WT selectivty ratio (BCLXL WT): 61.1 | IC50 (KMS-12-PE Bcl-2 WT): 0.0111 µM | Ratio (G101V/WT) (KMS-12-PE Bcl-2 G101V): 5.25 | IC50 (KMS-12-PE Bcl-2 G101V): 0.0583 µM

Cc1c(N(C(=O)c2cc(-c3cc4c(cc3C(=O)N3Cc5ccccc5C[C@H]3CN3CCCCC3)CN(C(=O)Cc3ccc(OCCC5CCOCC5)nc3)CC4)n(C)c2C)c2ccc(O)cc2)cc(C#N)n1C [Example 118, N-(5-cyano-1,2-dimethyl-1H-pyrrol-3-yl)-N-(4-hydroxyphenyl)-1,2-dimethyl-5-[2-(2-{6-[2-(oxan-4-yl)ethoxy]pyridin-3-yl}acetyl)-7-[(3S)-3-[(piperidin-1-yl)methyl]-1,2,3,4-tetrahydroisoquinoline-2-carbonyl]-1,2,3,4-tetrahydroisoquinolin-6-yl]-1H-pyrrole-3-carboxamide]
Ki (BCL2 WT): 0.1 nM | Ki (BCL2 G101V [1]): 0.5 nM | TR_FRET EKI G101V/WT selectivty ratio (BCL2 G101V [2]): 5.1 | Ki (BCL2 D103Y): 0.14 nM | Ki (BCLXL WT): 5.2 nM | TR_FRET EKI BCLxL/WT selectivty ratio (BCLXL WT): 52.5 | IC50 (KMS-12-PE Bcl-2 WT): 0.0107 µM | Ratio (G101V/WT) (KMS-12-PE Bcl-2 G101V): 7.61 | IC50 (KMS-12-PE Bcl-2 G101V): 0.0814 µM

Cc1c(N(C(=O)c2cc(-c3cc4c(cc3C(=O)N3Cc5ccccc5C[C@H]3CN3CCCCC3)CN(C(=O)Cc3ccc(OCCN5CCN(C)CC5)cc3)CC4)n(C)c2C)c2ccc(O)cc2)cc(C#N)n1C [Example 119, N-(5-cyano-1,2-dimethyl-1H-pyrrol-3-yl)-N-(4-hydroxyphenyl)-1,2-dimethyl-5-[2-(2-{4-[2-(4-methylpiperazin-1-yl)ethoxy]phenyl}acetyl)-7-[(3S)-3-[(piperidin-1-yl)methyl]-1,2,3,4-tetrahydroisoquinoline-2-carbonyl]-1,2,3,4-tetrahydroisoquinolin-6-yl]-1H-pyrrole-3-carboxamide]
Ki (BCL2 WT): 0.04 nM | Ki (BCL2 G101V [1]): 0.2 nM | TR_FRET EKI G101V/WT selectivty ratio (BCL2 G101V [2]): 5.6 | Ki (BCL2 D103Y): 0.14 nM | Ki (BCLXL WT): 2.2 nM | TR_FRET EKI BCLxL/WT selectivty ratio (BCLXL WT): 56.4 | IC50 (KMS-12-PE Bcl-2 WT): 0.0284 µM | Ratio (G101V/WT) (KMS-12-PE Bcl-2 G101V): 2.57 | IC50 (KMS-12-PE Bcl-2 G101V): 0.073 µM

Cc1c(N(C(=O)c2cc(-c3cc4c(cc3C(=O)N3Cc5ccccc5C[C@H]3CN3CCCCC3)CN(C(=O)Cc3ccc(OCCN5CCN(CCF)CC5)cc3)CC4)n(C)c2C)c2ccc(O)cc2)cc(C#N)n1C [Example 122, N-(5-cyano-1,2-dimethyl-1H-pyrrol-3-yl)-5-{2-[2-(4-{2-[4-(2-fluoroethyl)piperazin-1-yl]ethoxy}phenyl)acetyl]-7-[(3S)-3-[(piperidin-1-yl)methyl]-1,2,3,4-tetrahydroisoquinoline-2-carbonyl]-1,2,3,4-tetrahydroisoquinolin-6-yl}-N-(4-hydroxyphenyl)-1,2-dimethyl-1H-pyrrole-3-carboxamide]
Ki (BCL2 WT): 0.05 nM | Ki (BCL2 G101V [1]): 0.3 nM | TR_FRET EKI G101V/WT selectivty ratio (BCL2 G101V [2]): 5.1 | Ki (BCL2 D103Y): 0.13 nM | Ki (BCLXL WT): 3.7 nM | TR_FRET EKI BCLxL/WT selectivty ratio (BCLXL WT): 69.8 | IC50 (KMS-12-PE Bcl-2 WT): 0.0167 µM | Ratio (G101V/WT) (KMS-12-PE Bcl-2 G101V): 3.96 | IC50 (KMS-12-PE Bcl-2 G101V): 0.0662 µM

Cc1c(C(=O)N(c2ccc(O)cc2)c2cc(C#N)n(C(F)F)c2C)cc(-c2cc3c(cc2C(=O)N2Cc4ccccc4C[C@H]2CN2CCCCC2)CN(C(=O)Cc2ccc(OCCN4C[C@@H](C)O[C@@H](C)C4)cc2)CC3)n1C [Example 129, N-[5-cyano-1-(difluoromethyl)-2-methylpyrrol-3-yl]-5-{2-[2-(4-{2-[cis-2,6-dimethylmorpholin-4-yl]ethoxy}phenyl)acetyl]-7-{[(3S)-3-(piperidin-1-ylmethyl)-3,4-dihydro-1H-isoquinolin-2-yl]carbonyl}-3,4-dihydro-1H-isoquinolin-6-yl}-N-(4-hydroxyphenyl)-1,2-dimethylpyrrole-3-carboxamide]
Ki (BCL2 WT): 0.15 nM | Ki (BCL2 G101V [1]): 0.8 nM | TR_FRET EKI G101V/WT selectivty ratio (BCL2 G101V [2]): 5.5 | Ki (BCL2 D103Y): 0.24 nM | Ki (BCLXL WT): 14.4 nM | TR_FRET EKI BCLxL/WT selectivty ratio (BCLXL WT): 96.0 | IC50 (KMS-12-PE Bcl-2 WT): 0.014 µM | Ratio (G101V/WT) (KMS-12-PE Bcl-2 G101V): 4.5143 | IC50 (KMS-12-PE Bcl-2 G101V): 0.0632 µM

Cc1c(N(C(=O)c2cc(-c3cc4c(cc3C(=O)N3Cc5ccccc5C[C@H]3CN3CCC(F)(F)CC3)CN(C(=O)Cc3ccc(OCCN5CCOCC5)cc3F)CC4)n(C)c2C)c2ccc(O)cc2)cc(C#N)n1C [Example 130, N-(5-cyano-1,2-dimethyl-1H-pyrrol-3-yl)-5-{7-[(3S)-3-[(4,4-difluoropiperidin-1-yl)methyl]-1,2,3,4-tetrahydroisoquinoline-2-carbonyl]-2-(2-{2-fluoro-4-[2-(morpholin-4-yl)ethoxy]phenyl}acetyl)-1,2,3,4-tetrahydroisoquinolin-6-yl}-N-(4-hydroxyphenyl)-1,2-dimethyl-1H-pyrrole-3-carboxamide]
Ki (BCL2 WT): 0.4 nM | Ki (BCL2 G101V [1]): 2.3 nM | TR_FRET EKI G101V/WT selectivty ratio (BCL2 G101V [2]): 5.8 | Ki (BCL2 D103Y): 1.33 nM | Ki (BCLXL WT): 6.1 nM | TR_FRET EKI BCLxL/WT selectivty ratio (BCLXL WT): 15.3 | IC50 (KMS-12-PE Bcl-2 WT): 0.0055 µM | Ratio (G101V/WT) (KMS-12-PE Bcl-2 G101V): 4.69 | IC50 (KMS-12-PE Bcl-2 G101V): 0.0258 µM
